Assay results published in publication PMC3229200 (Bioorganic & medicinal chemistry, 2011).

Experiments:
σ2 receptor [1] = biological target: σ2 receptor (Homo sapiens, UniProt Q5BJF2); format: binding; conditions: 10 μM competing compound, 1 nM [125I]-IAF, RT4 cell membranes
σ1 receptor = σ1 receptor (Homo sapiens, UniProt Q99720); format: binding; conditions: 10 μM competing compound, 1 nM [125I]-IAF, RT4 cell membranes
σ2 receptor [2] = biological target: T1, σ2 receptor (Rattus norvegicus, UniProt Q5U3Y7); assay: Competitive σ2 receptor radioligand binding
T1 sequence (Q5U3Y7 1-176): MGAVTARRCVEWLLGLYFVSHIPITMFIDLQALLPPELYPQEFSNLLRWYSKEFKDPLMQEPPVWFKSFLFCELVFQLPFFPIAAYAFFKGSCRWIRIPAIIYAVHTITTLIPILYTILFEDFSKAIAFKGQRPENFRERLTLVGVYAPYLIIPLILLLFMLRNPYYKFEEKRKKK

Chain of σ2 receptor (Homo sapiens, UniProt Q5BJF2) (Q5BJF2 whole entry): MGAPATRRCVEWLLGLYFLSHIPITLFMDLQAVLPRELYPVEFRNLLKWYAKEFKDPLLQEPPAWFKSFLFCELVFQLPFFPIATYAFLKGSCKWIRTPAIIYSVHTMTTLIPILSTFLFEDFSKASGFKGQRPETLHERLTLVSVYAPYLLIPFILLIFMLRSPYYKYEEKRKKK
Chain of σ1 receptor (Q99720 whole entry): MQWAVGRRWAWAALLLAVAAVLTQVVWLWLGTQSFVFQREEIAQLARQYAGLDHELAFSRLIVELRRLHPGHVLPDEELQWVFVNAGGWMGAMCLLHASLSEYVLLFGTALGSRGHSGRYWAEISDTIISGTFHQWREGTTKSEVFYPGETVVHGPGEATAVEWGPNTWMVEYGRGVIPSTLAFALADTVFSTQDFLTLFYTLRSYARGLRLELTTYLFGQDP

`O=C1c2ccccc2C(=O)N1CCCCN1CCc2ccc([N+](=O)[O-])cc2C1` [Compound 3b, 2-(4-(7-Nitro-3,4-dihydroisoquinoline-2(1H)-yl)butyl)isoindoline-1,3-dione] was tested, and the “Blocking of σ2 receptor photolabeling by [125I]-IAF” value (σ2 receptor [1]) was “diminished both bands” and the “Blocking of σ1 receptor photolabeling by [125I]-IAF” value (σ1 receptor) was “diminished both bands”.

With `COc1ccc(C(=O)NCCCCN2CCc3ccc([N+](=O)[O-])cc3C2)c(OC)c1OC` [Compound 5e, 2,3,4-Trimethoxy-N-(4-(7-nitro-3,4-dihydroisoquinoline-2(1H)-yl)butyl)benzamide] the “Blocking of σ2 receptor photolabeling by [125I]-IAF” value (σ2 receptor [1]) was “eliminated σ2 labeling”, the “Selectivity for the σ2 over the σ1 receptor” value (σ2 receptor [2]) was ~ 400 fold and the “Improvement of σ2 selectivity relative to the σ1 receptor, versus 5f” value (σ2 receptor [2]; 5e compared to 5f) was 631 fold. The “Increase of σ2 affinity versus 5f” value (σ2 receptor [2]; 5e compared to 5f) was 500 fold and the “Blocking of σ1 receptor photolabeling by [125I]-IAF” value (σ1 receptor) was “left σ1 labeling essentially unaltered”.

For `COc1cccc(C(=O)NCCCCN2CCc3ccc([N+](=O)[O-])cc3C2)c1OC` [Compound 5f, 2,3-Dimethoxy-N-(4-(7-nitro-3,4-dihydroisoquinoline-2(1H)-yl)butyl)benzamide], the “Blocking of σ2 receptor photolabeling by [125I]-IAF” value (σ2 receptor [1]) was “did not block the labeling of either receptor” and the “Blocking of σ1 receptor photolabeling by [125I]-IAF” value (σ1 receptor) was “did not block the labeling of either receptor”.

In the case of `O=C(CCCN1CCC(O)(c2ccc(Cl)cc2)CC1)c1ccc(F)cc1` [haloperidol, reference compound], the “Blocking of σ2 receptor photolabeling by [125I]-IAF” value (σ2 receptor [1]) is reported as “blocked photolabeling”.

With `COc1c(I)ccc(C(=O)NCCCCN2CCc3ccc([N+](=O)[O-])cc3C2)c1O` [Compound 5g, 2-Hydroxy-4-iodo-3-methoxy-N-(4-(7-nitro-3,4-dihydroisoquinoline-2(1H)-yl)butyl)benzamide] the “Increase of σ2 affinity in comparison to compound 5h” value (σ2 receptor [2]; 5g compared to 5h) was 4.5 fold.
